In PubChem BioAssay (NCI):
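Each compound was tested at five concentrations against cells in 96-well plates for 48 hours. GI50 = concentration required for 50% inhibition of growth. TGI: concentration producing complete growth inhibition.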

Legend:
Test in all cases: DTP human tumour cell line panel, 48 h
786-0 renal = tested on: 786-0 renal
A498 renal = tested on: A498 renal
ACHN renal = tested on: ACHN renal
BT-549 breast = tested on: BT-549 breast
CAKI-1 renal = tested on: CAKI-1 renal
CCRF-CEM leukemia = tested on: CCRF-CEM leukemia
COLO 205 colon = tested on: COLO 205 colon
DU-145 prostate = tested on: DU-145 prostate
EKVX NSCLC = tested on: EKVX NSCLC
HCC-2998 colon = tested on: HCC-2998 colon
HCT-116 colon = tested on: HCT-116 colon
HCT-15 colon = tested on: HCT-15 colon
HL-60(TB) leukemia = tested on: HL-60(TB) leukemia
HOP-62 NSCLC = tested on: HOP-62 NSCLC
HOP-92 NSCLC = tested on: HOP-92 NSCLC
HS 578T breast = tested on: HS 578T breast
HT29 colon = tested on: HT29 colon
IGROV1 ovarian = tested on: IGROV1 ovarian
K-562 leukemia = tested on: K-562 leukemia
KM12 colon = tested on: KM12 colon
LOX IMVI melanoma = tested on: LOX IMVI melanoma
M14 melanoma = tested on: M14 melanoma
MALME-3M melanoma = tested on: MALME-3M melanoma
MCF7 breast = tested on: MCF7 breast
MDA-MB-231 breast = tested on: MDA-MB-231 breast
MDA-MB-435 = tested on: MDA-MB-435
MDA-MB-468 breast = tested on: MDA-MB-468 breast
MOLT-4 leukemia = tested on: MOLT-4 leukemia
NCI-H226 lung = tested on: NCI-H226 lung
NCI-H23 lung = tested on: NCI-H23 lung
NCI-H460 lung = tested on: NCI-H460 lung
NCI-H522 lung = tested on: NCI-H522 lung
NCI/ADR-RES ovarian = tested on: NCI/ADR-RES ovarian
OVCAR-3 ovarian = tested on: OVCAR-3 ovarian
OVCAR-4 ovarian = tested on: OVCAR-4 ovarian
OVCAR-5 ovarian = tested on: OVCAR-5 ovarian
OVCAR-8 ovarian = tested on: OVCAR-8 ovarian
PC-3 prostate = tested on: PC-3 prostate
RPMI-8226 leukemia = tested on: RPMI-8226 leukemia
RXF 393 renal = tested on: RXF 393 renal
SF-268 CNS = tested on: SF-268 CNS
SF-295 CNS = tested on: SF-295 CNS
SF-539 CNS = tested on: SF-539 CNS
SK-MEL-2 melanoma = tested on: SK-MEL-2 melanoma
SK-MEL-28 melanoma = tested on: SK-MEL-28 melanoma
SK-MEL-5 melanoma = tested on: SK-MEL-5 melanoma
SK-OV-3 ovarian = tested on: SK-OV-3 ovarian
SN12C renal = tested on: SN12C renal
SNB-19 CNS = tested on: SNB-19 CNS
SNB-75 CNS = tested on: SNB-75 CNS
SR leukemia = tested on: SR leukemia
SW-620 colon = tested on: SW-620 colon
T-47D breast = tested on: T-47D breast
TK-10 renal = tested on: TK-10 renal
U251 CNS = tested on: U251 CNS
UACC-257 melanoma = tested on: UACC-257 melanoma
UACC-62 melanoma = tested on: UACC-62 melanoma
UO-31 renal = tested on: UO-31 renal

SMILES: O=C(NN1C(=O)/C(=C/C=C/c2ccc([N+](=O)[O-])o2)SC1=S)c1ccc(Cl)cc1
- GI50 (786-0 renal): 241 nM
- TGI (786-0 renal): 550 nM
- GI50 (A498 renal): 4.2 µM
- TGI (A498 renal): 9.7 µM
- GI50 (ACHN renal): 288 nM
- TGI (ACHN renal): 780 nM
- GI50 (BT-549 breast): 225 nM
- TGI (BT-549 breast): 519 nM
- GI50 (CAKI-1 renal): 346 nM
- TGI (CAKI-1 renal): 1140 nM
- GI50 (CCRF-CEM leukemia): 316 nM
- TGI (CCRF-CEM leukemia): 9.26 µM
- GI50 (COLO 205 colon): 212 nM
- TGI (COLO 205 colon): 428 nM
- GI50 (DU-145 prostate): 614 nM
- TGI (DU-145 prostate): 1550 nM
- GI50 (EKVX NSCLC): 285 nM
- TGI (EKVX NSCLC): 889 nM
- GI50 (HCC-2998 colon): 268 nM
- TGI (HCC-2998 colon): 706 nM
- GI50 (HCT-116 colon): 84.8 nM
- TGI (HCT-116 colon): 253 nM
- GI50 (HCT-15 colon): 64.7 nM
- TGI (HCT-15 colon): 208 nM
- GI50 (HL-60(TB) leukemia): 2060 nM
- TGI (HL-60(TB) leukemia): 11.3 µM
- GI50 (HOP-62 NSCLC): 780 nM
- TGI (HOP-62 NSCLC): 2120 nM
- GI50 (HOP-92 NSCLC): 299 nM
- TGI (HOP-92 NSCLC): 734 nM
- GI50 (HS 578T breast): 1350 nM
- TGI (HS 578T breast): 4.55 µM
- GI50 (HT29 colon): 221 nM
- TGI (HT29 colon): 475 nM
- GI50 (IGROV1 ovarian): 596 nM
- TGI (IGROV1 ovarian): 1390 nM
- GI50 (K-562 leukemia): 121 nM
- TGI (K-562 leukemia): 8.28 µM
- GI50 (KM12 colon): 473 nM
- TGI (KM12 colon): 1910 nM
- GI50 (LOX IMVI melanoma): 219 nM
- TGI (LOX IMVI melanoma): 496 nM
- GI50 (M14 melanoma): 189 nM
- TGI (M14 melanoma): 369 nM
- GI50 (MALME-3M melanoma): 186 nM
- TGI (MALME-3M melanoma): 347 nM
- GI50 (MCF7 breast): 293 nM
- TGI (MCF7 breast): 1440 nM
- GI50 (MDA-MB-231 breast): 180 nM
- TGI (MDA-MB-231 breast): 341 nM
- GI50 (MDA-MB-435): 203 nM
- TGI (MDA-MB-435): 446 nM
- GI50 (MDA-MB-468 breast): 1480 nM
- TGI (MDA-MB-468 breast): 3.09 µM
- GI50 (MOLT-4 leukemia): 397 nM
- TGI (MOLT-4 leukemia): 13.6 µM
- GI50 (NCI-H226 lung): 247 nM
- TGI (NCI-H226 lung): 601 nM
- GI50 (NCI-H23 lung): 202 nM
- TGI (NCI-H23 lung): 442 nM
- GI50 (NCI-H460 lung): 252 nM
- TGI (NCI-H460 lung): 648 nM
- GI50 (NCI-H522 lung): 180 nM
- TGI (NCI-H522 lung): 353 nM
- GI50 (NCI/ADR-RES ovarian): 493 nM
- TGI (NCI/ADR-RES ovarian): 2000 nM
- GI50 (OVCAR-3 ovarian): 268 nM
- TGI (OVCAR-3 ovarian): 747 nM
- GI50 (OVCAR-4 ovarian): 1260 nM
- TGI (OVCAR-4 ovarian): 2790 nM
- GI50 (OVCAR-5 ovarian): 734 nM
- TGI (OVCAR-5 ovarian): 2000 nM
- GI50 (OVCAR-8 ovarian): 245 nM
- TGI (OVCAR-8 ovarian): 774 nM
- GI50 (PC-3 prostate): 863 nM
- TGI (PC-3 prostate): 3.9 µM
- GI50 (RPMI-8226 leukemia): 318 nM
- TGI (RPMI-8226 leukemia): 2180 nM
- GI50 (RXF 393 renal): 239 nM
- TGI (RXF 393 renal): 837 nM
- GI50 (SF-268 CNS): 1530 nM
- TGI (SF-268 CNS): 4.11 µM
- GI50 (SF-295 CNS): 1740 nM
- TGI (SF-295 CNS): 3.28 µM
- GI50 (SF-539 CNS): 202 nM
- TGI (SF-539 CNS): 401 nM
- GI50 (SK-MEL-2 melanoma): 219 nM
- TGI (SK-MEL-2 melanoma): 503 nM
- GI50 (SK-MEL-28 melanoma): 356 nM
- TGI (SK-MEL-28 melanoma): 1100 nM
- GI50 (SK-MEL-5 melanoma): 214 nM
- TGI (SK-MEL-5 melanoma): 500 nM
- GI50 (SK-OV-3 ovarian): 1710 nM
- TGI (SK-OV-3 ovarian): 3.18 µM
- GI50 (SN12C renal): 172 nM
- TGI (SN12C renal): 375 nM
- GI50 (SNB-19 CNS): 1270 nM
- TGI (SNB-19 CNS): 2540 nM
- GI50 (SNB-75 CNS): 1200 nM
- TGI (SNB-75 CNS): 2820 nM
- GI50 (SR leukemia): 45.4 nM
- TGI (SR leukemia): > 100 µM
- GI50 (SW-620 colon): 143 nM
- TGI (SW-620 colon): 310 nM
- GI50 (T-47D breast): 1640 nM
- TGI (T-47D breast): 3.1 µM
- GI50 (TK-10 renal): 1470 nM
- TGI (TK-10 renal): 2920 nM
- GI50 (U251 CNS): 306 nM
- TGI (U251 CNS): 1120 nM
- GI50 (UACC-257 melanoma): 1480 nM
- TGI (UACC-257 melanoma): 3.22 µM
- GI50 (UACC-62 melanoma): 223 nM
- TGI (UACC-62 melanoma): 564 nM
- GI50 (UO-31 renal): 671 nM
- TGI (UO-31 renal): 1970 nM
